According to PubChem BioAssay (NCI):
Where “and” joins values, the source holds several entries; their conditions need not be identical. Equal entries are not always repeated.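 Grown in 96-well plates, cells were treated for 48 hours with each compound at five concentrations. Insufficient inhibition: endpoint recorded as highest concentration tested. GI50 marks 50% less growth. TGI is the concentration that stops growth completely.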

Tests used:
Assay in all cases: growth of human tumour cells (NCI), 48 h
MDA-MB-231 breast = tested on: MDA-MB-231 breast
HCC-2998 colon = tested on: HCC-2998 colon
SK-MEL-2 melanoma = tested on: SK-MEL-2 melanoma
OVCAR-8 ovarian = tested on: OVCAR-8 ovarian
K-562 leukemia = tested on: K-562 leukemia
UACC-257 melanoma = tested on: UACC-257 melanoma
HCT-15 colon = tested on: HCT-15 colon
IGROV1 ovarian = tested on: IGROV1 ovarian
KM12 colon = tested on: KM12 colon
MOLT-4 leukemia = tested on: MOLT-4 leukemia

Row | SMILES | TGI (MDA-MB-231 breast) | TGI (HCC-2998 colon) | TGI (SK-MEL-2 melanoma) | TGI (OVCAR-8 ovarian) | TGI (K-562 leukemia) | TGI (UACC-257 melanoma) | TGI (HCT-15 colon) | TGI (IGROV1 ovarian) | TGI (KM12 colon) | TGI (MOLT-4 leukemia) | GI50 (MDA-MB-231 breast) | GI50 (HCC-2998 colon) | GI50 (SK-MEL-2 melanoma) | GI50 (OVCAR-8 ovarian) | GI50 (K-562 leukemia) | GI50 (UACC-257 melanoma) | GI50 (HCT-15 colon) | GI50 (IGROV1 ovarian) | GI50 (KM12 colon) | GI50 (MOLT-4 leukemia)
1 | COc1cc(OC)c(OC)cc1/C=C/c1ccccn1 | > 10 µM | > 10 µM | > 10 µM | > 10 µM | > 10 µM | > 10 µM | > 10 µM | > 10 µM | > 10 µM | > 10 µM |  |  |  |  |  |  |  |  |  | 
2 | COCCn1c(Nc2ccc(C(=O)NO)cc2)nc2ccccc21 | 44.7 µM | 12.6 µM | 50.3 µM | 16 µM | > 100 µM | 14.1 µM | 31.5 µM | 15.2 µM | 15.1 µM | > 100 µM | 4.65 µM | 3.32 µM | 5.33 µM | 2.69 µM | 3.03 µM | 1.77 µM | 9.14 µM | 2.39 µM | 3.65 µM | 3.86 µM
3 | CC(=O)Nc1ccc(CC[C@H]2CCC/C=C/[C@@H]3C[C@H](O)C[C@H]3[C@H](O)/C=C/C(=O)O2)cc1 | 0.252 µM |  | 0.963 µM | > 100 µM | > 100 µM | > 100 µM | > 100 µM | 0.237 µM | 0.315 µM | 2.82 µM | 0.0826 µM | 0.0781 µM | 0.313 µM | 0.0821 µM | 0.392 µM | 0.0596 µM | 0.471 µM | 0.0887 µM | 0.0983 µM | 0.345 µM
4 | CCOc1cc(/C=C/C(=O)CC(=O)/C=C/c2ccc(OC(=O)CNc3nc4ccc(OC)cc4s3)c(OCC)c2)ccc1OC(=O)CNc1nc2ccc(OC)cc2s1 | 60 µM | 14.8 µM | 29.1 µM | 6.32 µM | > 100 µM | 21.1 µM | 22.6 µM |  | 12.1 µM | 11.1 µM | 13.8 µM | 3.16 µM | 4.94 µM | 2.5 µM | 2.71 µM | 5.53 µM | 5.24 µM |  | 2.96 µM | 3.14 µM
5 | O=C(Nc1ccc(Nc2ccc3c(c2)C(=O)c2ccccc2C3=O)c2c1C(=O)c1ccccc1C2=O)c1ccccc1 | > 100 µM | 86.9 µM | > 30.5 µM | > 100 µM | > 100 µM | > 100 µM | > 100 µM | > 100 µM | > 100 µM | > 69.3 µM |  |  |  |  |  |  |  |  |  | 
6 | Cc1cc(NC(=O)NCCCOc2ccc(N3C(N)=NC(N)=NC3(C)C)cc2Cl)ccc1S(=O)(=O)F | > 100 µM | > 69.2 µM | 65.9 µM | > 100 µM | > 100 µM | 30.9 µM | > 100 µM | > 68.8 µM | 17 µM | > 96.1 µM | 7.16 µM | 2.06 µM | 2.43 µM | 2.52 µM | 0.318 µM | 4.09 µM | 39.2 µM | 0.332 µM | 0.631 µM | 1.14 µM
7 | Nc1nc(N)c2cc(S(=O)(=O)c3cccc(C(F)(F)F)c3)ccc2n1 | > 100 µM | > 100 µM | 73.2 µM | > 100 µM | > 100 µM |  | > 100 µM | > 100 µM |  | > 100 µM | 9.75 µM | 5.03 µM | 11 µM | 4.22 µM | 0.682 µM |  | 3.09 µM | 5.28 µM |  | 4.32 µM
8 | COc1ccc(-c2nn3ncccc3c2-c2ccnc(Nc3ccc(F)c(F)c3)n2)cc1 | > 25 µM | > 25 µM |  | > 25 µM | > 25 µM | > 25 µM | > 25 µM | 24.5 µM | > 25 µM | > 25 µM | 9.1 µM | 6.72 µM |  | 11.2 µM | 6.57 µM | 12 µM | 8.77 µM | 8.47 µM | 9.45 µM | 8.45 µM
9 | O=c1oc2ccccc2cc1P(=O)(O)O | > 100 µM | > 100 µM | > 100 µM | > 100 µM | > 100 µM | > 100 µM | > 100 µM | > 100 µM |  | > 100 µM |  |  |  |  |  |  |  |  |  | 
10 | N#Cc1nc2cc(Cl)c(Cl)cc2nc1-c1ccc(Cl)cc1 | > 73.4 µM | 18.2 µM | > 100 µM | > 100 µM | > 100 µM | > 100 µM | > 100 µM | > 100 µM | > 100 µM | > 60.4 µM | 22.3 µM | 0.165 µM | > 56 µM | 55.7 µM | > 56.1 µM | 97.4 µM | > 71.9 µM | 73.2 µM | > 60.5 µM | 26.9 µM
11 | COc1cc2c(cc1OCCCCCOc1ccc(-c3nc4ccccc4s3)cc1)N=C[C@@H]1CCCN1C2=O | 4.2 µM | 9.06 µM | 16.2 µM | 21.1 µM | 12.2 µM | 21.2 µM | 22.2 µM | 43.5 µM | 22.9 µM | 20 µM | 1.02 µM | 3.02 µM | 4.86 µM | 3.13 µM | 0.914 µM | 6.61 µM | 2.46 µM | 4.39 µM | 4.38 µM | 3.5 µM
12 | CC[C@@H]1C(=O)N(C)c2cnc(Nc3ccc(C(=O)NC4CCC(N5CCN(CC6CC6)CC5)CC4)cc3OC)nc2N1C(C)C (stereo partly drawn) | > 4.6 µM and 7.06 µM | > 4.12 µM and 2.83 µM | 1.97 µM and 2.27 µM | > 10 µM and 1.65 µM | > 10 µM and 1.83 µM | > 5.86 µM and 1.75 µM | > 6.64 µM and 5.33 µM | > 10 µM and 7.22 µM | > 10 µM and 8.15 µM | > 5.38 µM and 1.28 µM | 0.0186 µM and 0.0304 µM | 0.0289 µM and 0.0374 µM | 0.0221 µM and 0.0351 µM | 0.0242 µM and 0.033 µM | 0.00946 µM and 0.0288 µM | 0.22 µM and 0.046 µM | 0.0686 µM and 0.145 µM | 0.0418 µM and 0.0524 µM | 0.0069 µM and < 0.01 µM | 0.0116 µM and 0.019 µM
13 | C[C@]12CC[C@H]3[C@@H](CCC4=CC(=O)CC[C@@]43C)[C@]1(O)CC[C@]2(O)C(=O)CO | > 100 µM | > 100 µM | > 100 µM | > 100 µM | > 100 µM | > 100 µM | > 100 µM | > 100 µM | > 100 µM | > 100 µM |  |  |  |  |  |  |  |  |  | 
14 | COc1cc(-c2csc(NC(=O)Nc3ccc(Cl)cc3)n2)cc(OC)c1OC | 12.7 µM | 18.8 µM | 5.04 µM | 5.85 µM | > 100 µM | 6.03 µM | > 40.9 µM | 29.5 µM | 7.9 µM |  | 2.99 µM | 3.9 µM | 2.18 µM | 2.46 µM | 3.38 µM | 2.48 µM | 2.9 µM | 3.18 µM | 2.57 µM | 
